Test system: 282377-053-R-J1-PDC complex spheroid viability
Experiment: Anticancer human tumor 282377-053-R-J1-PDC patient-derived colon adenocarcinoma cell line growth inhibition [POLQ]
Settings: for IC50: curve of first compound; for viability, T/C: stronger effect = lower value
Experimental: Multicellular complex tumor spheroid response to Polymerase (POL) inhibitors (novobiocin, ART-558, RP6685) in combination with a variety of drugs and investigational agents in selected tumor cell lines
The POL inhibitors (novobiocin, ART-558, and RP6685) were evaluated both individually and in combination with standard of care and investigational anticancer small molecules within a complex spheroid model of solid tumors. . Complex spheroids include a stromal component modeled by human endothelial cells (HUVEC) and fibroblasts modeled by human mesenchymal stem cells (MSCs). The concentration ranges selected for each drug and investigational agent were based upon clinically achievable concentrations if the clinical Cmax of the agent was known.
Compounds. The drugs and investigational agents: novobiocin (NSC847541), ART-558 (NSC835418), RP-6685 (NSC848927), peposertib (NSC802822), ceralasertib (NSC780249), elimusertib (NSC800525), camonsertib (NSC841442), AZD-1390 (NSC803789), olaparib (NSC753686), talazoparib (NSC767125), rucaparib (NSC756644), sotorasib (NSC818433), MRTX-1133 (NSC836407), SN-38 (NSC673596), topotecan (NSC609699), epotoside (NSC141540), doxorubicin (NSC123127), gemcitabine (NSC613327), 5-fluorouracil (NSC19893), paclitaxel (NSC125973), vemurafenib (NSC761431), MSA-2 (NSC828583), SN-011 (NSC837082), adavosertib (NSC754352), prexasertib (NSC758257), carboplatin (NSC241240) and oxaliplatin (NSC266046), were obtained from the National Cancer Institute (NCI) Developmental Therapeutics Program Chemical Repository (21). The FDA-approved anticancer drug set is available from the Developmental Therapeutics Program at https://dtp.cancer.gov/organization/dscb/obtaining/. […] The stock solutions were prepared in dimethyl sulfoxide (DMSO, Sigma-Aldrich, St. Louis, MO, cat. D2650), except for the platinum compounds which were prepared in saline (Quality Biological, Gaithersburg, MD, cat. 114-055-101), at 800-fold the tested concentration and stored at -70 degrees C prior to their use. All drugs and investigational agents were tested over a range starting from a high concentration at or near the clinical Cmax and decreasing in half-log increments. If the clinical Cmax for an agent had not been determined, the highest concentration tested was 10 microM, except for SN-38, which was tested at a high concentration of 1 microM.
Cell Culture. All cells were maintained in an incubator at 37 degrees C and 5% CO2 with 95% humidity. The PDC lines were cultured according to standard operating procedures established by the NCI PDMR (https://pdmr.cancer.gov). Table 3 of the manuscript, lists the cell lines along with the number of the three cell types plated to form the mct-spheroids and media for tumor cell growth. After thawing, all PDC lines, except 997537-175-T-J1-PDC and 415267-285-R-J2-PDC, were cultured in Matrigel-coated flasks prepared with a working solution of 1X Ham's F-12 nutrient mix, without supplementation (Thermo Fisher Scientific, cat. 11765054), 100 U/mL penicillin-streptomycin (Thermo Fisher Scientific, cat. 15140122), and 2.5% Matrigel (Corning Inc., Corning, NY, cat. 354248) for the first three passages. The two PDC lines 997537-175-T-J1-PDC and 415267-285-R-J2-PDC were cultured on uncoated flasks. The 857933-349-R-J2-PDC line was cultured in 6C/Colon 1B media containing advanced DMEM/F-12 (Thermo Fisher Scientific, cat. 12634028), 10 mM HEPES (Thermo Fisher Scientific, cat. 15630080), 1X GlutaMAX supplement (Thermo Fisher Scientific, cat. 35050061), 0.1 mg/mL primocin (InvivoGen, San Diego, CA, cat. ant-pm-2), 10% defined fetal bovine serum, heat inactivated (HyClone Laboratories Inc., Logan, UT, cat. SH30070.03HI), 50% L-WRN conditioned media (ATCC, cat. CRL-3276), 1.25 mM N-Acetyl-L-cysteine (Sigma-Aldrich, cat. A9165), 10 mM nicotinamide (Sigma-Aldrich, cat. N0636), 1X B-27 supplement (Thermo Fisher Scientific, cat. 17504044), 1X N-2 supplement (Thermo Fisher Scientific, cat. […]

[1] = second compound 0.0316 µM, first compound 0.0316 µM
[2] = second compound 0.0316 µM, first compound 0.1 µM
[3] = second compound 0.0316 µM, first compound 0.316 µM
[4] = second compound 0.0316 µM, first compound 1 µM
[5] = second compound 0.0316 µM, first compound 3.16 µM
[6] = second compound 0.0316 µM, first compound 10 µM
[7] = second compound 0.1 µM, first compound 0.0316 µM
[8] = second compound 0.1 µM, first compound 0.1 µM
[9] = second compound 0.1 µM, first compound 0.316 µM
[10] = second compound 0.1 µM, first compound 1 µM
[11] = second compound 0.1 µM, first compound 3.16 µM
[12] = second compound 0.1 µM, first compound 10 µM
[13] = second compound 0.316 µM, first compound 0.0316 µM
[14] = second compound 0.316 µM, first compound 0.1 µM
[15] = second compound 0.316 µM, first compound 0.316 µM
[16] = second compound 0.316 µM, first compound 1 µM
[17] = second compound 0.316 µM, first compound 3.16 µM
[18] = second compound 0.316 µM, first compound 10 µM
[19] = second compound 1 µM, first compound 0.0316 µM
[20] = second compound 1 µM, first compound 0.1 µM
[21] = second compound 1 µM, first compound 0.316 µM
[22] = second compound 1 µM, first compound 1 µM
[23] = second compound 1 µM, first compound 3.16 µM
[24] = second compound 1 µM, first compound 10 µM
[25] = second compound 3.16 µM, first compound 0.0316 µM
[26] = second compound 3.16 µM, first compound 0.1 µM
[27] = second compound 3.16 µM, first compound 0.316 µM
[28] = second compound 3.16 µM, first compound 1 µM
[29] = second compound 3.16 µM, first compound 3.16 µM
[30] = second compound 3.16 µM, first compound 10 µM
[31] = second compound 10 µM, first compound 0.0316 µM
[32] = second compound 10 µM, first compound 0.1 µM
[33] = second compound 10 µM, first compound 0.316 µM
[34] = second compound 10 µM, first compound 1 µM
[35] = second compound 10 µM, first compound 3.16 µM
[36] = second compound 10 µM, first compound 10 µM
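Note: spheroids exposed to compounds for seven days.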
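Throughout, for viability, T/C: 100% = DMSO vehicle control viability.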

Compound: C=CC(=O)N1CCN(c2nc(=O)n(-c3c(C)ccnc3C(C)C)c3nc(-c4c(O)cccc4F)c(F)cc23)C(C)C1 (stereo unspecified) + Cc1cccc(N(C)C(=O)C2C(O)CCN2c2nc(C)cc(C(F)(F)F)c2C#N)c1
- IC50 (second compound 0.0316 µM): > 10000 nM
- IC50 (second compound 0.1 µM): > 10000 nM
- IC50 (second compound 0.316 µM): > 10000 nM
- IC50 (second compound 1 µM): > 10000 nM
- IC50 (second compound 3.16 µM): > 10000 nM
- IC50 (second compound 10 µM): > 10000 nM
- viability, T/C [1]: 94.8%
- viability, T/C [2]: 84.6%
- viability, T/C [3]: 119%
- viability, T/C [4]: 89.3%
- viability, T/C [5]: 97.3%
- viability, T/C [6]: 80.5%
- viability, T/C [7]: 102%
- viability, T/C [8]: 108%
- viability, T/C [9]: 93.4%
- viability, T/C [10]: 83.5%
- viability, T/C [11]: 90.4%
- viability, T/C [12]: 88.7%
- viability, T/C [13]: 91.2%
- viability, T/C [14]: 106%
- viability, T/C [15]: 106%
- viability, T/C [16]: 89.4%
- viability, T/C [17]: 74.1%
- viability, T/C [18]: 79.3%
- viability, T/C [19]: 79.2%
- viability, T/C [20]: 92.7%
- viability, T/C [21]: 89%
- viability, T/C [22]: 80.8%
- viability, T/C [23]: 85.7%
- viability, T/C [24]: 76.6%
- viability, T/C [25]: 88.5%
- viability, T/C [26]: 99%
- viability, T/C [27]: 71.9%
- viability, T/C [28]: 88.5%
- viability, T/C [29]: 84%
- viability, T/C [30]: 89.4%
- viability, T/C [31]: 76.7%
- viability, T/C [32]: 80.8%
- viability, T/C [33]: 89.7%
- viability, T/C [34]: 86.8%
- viability, T/C [35]: 85.8%
- viability, T/C [36]: 70.7%

Compound: CC(=O)O[C@H]1C(=O)[C@@]2(C)[C@H]([C@H](OC(=O)c3ccccc3)[C@]3(O)C[C@H](OC(=O)[C@H](O)[C@@H](NC(=O)c4ccccc4)c4ccccc4)C(C)=C1C3(C)C)[C@]1(OC(C)=O)CO[C@@H]1C[C@@H]2O + Cc1cccc(N(C)C(=O)C2C(O)CCN2c2nc(C)cc(C(F)(F)F)c2C#N)c1
- IC50 (second compound 0.0316 µM): 27.8 nM
- IC50 (second compound 0.1 µM): 28 nM
- IC50 (second compound 0.316 µM): 26 nM
- IC50 (second compound 1 µM): 27.6 nM
- IC50 (second compound 3.16 µM): 28.1 nM
- IC50 (second compound 10 µM): 26.9 nM
- viability, T/C (second compound 0.0316 µM, first compound 0.00949 µM): 103%
- viability, T/C (second compound 0.0316 µM, first compound 0.03 µM): 44.3%
- viability, T/C (second compound 0.0316 µM, first compound 0.0949 µM): 40.6%
- viability, T/C (second compound 0.0316 µM, first compound 0.3 µM): 43%
- viability, T/C (second compound 0.0316 µM, first compound 0.949 µM): 45.6%
- viability, T/C (second compound 0.0316 µM, first compound 3 µM): 57.6%
- viability, T/C (second compound 0.1 µM, first compound 0.00949 µM): 90.3%
- viability, T/C (second compound 0.1 µM, first compound 0.03 µM): 47.5%
- viability, T/C (second compound 0.1 µM, first compound 0.0949 µM): 43.4%
- viability, T/C (second compound 0.1 µM, first compound 0.3 µM): 40.9%
- viability, T/C (second compound 0.1 µM, first compound 0.949 µM): 44.8%
- viability, T/C (second compound 0.1 µM, first compound 3 µM): 53%
- viability, T/C (second compound 0.316 µM, first compound 0.00949 µM): 98.8%
- viability, T/C (second compound 0.316 µM, first compound 0.03 µM): 42.5%
- viability, T/C (second compound 0.316 µM, first compound 0.0949 µM): 38.5%
- viability, T/C (second compound 0.316 µM, first compound 0.3 µM): 37.5%
- viability, T/C (second compound 0.316 µM, first compound 0.949 µM): 45.4%
- viability, T/C (second compound 0.316 µM, first compound 3 µM): 51.4%
- viability, T/C (second compound 1 µM, first compound 0.00949 µM): 92.3%
- viability, T/C (second compound 1 µM, first compound 0.03 µM): 44.9%
- viability, T/C (second compound 1 µM, first compound 0.0949 µM): 37.2%
- viability, T/C (second compound 1 µM, first compound 0.3 µM): 45.6%
- viability, T/C (second compound 1 µM, first compound 0.949 µM): 48.8%
- viability, T/C (second compound 1 µM, first compound 3 µM): 56.7%
- viability, T/C (second compound 3.16 µM, first compound 0.00949 µM): 99.5%
- viability, T/C (second compound 3.16 µM, first compound 0.03 µM): 47.2%
- viability, T/C (second compound 3.16 µM, first compound 0.0949 µM): 39.5%
- viability, T/C (second compound 3.16 µM, first compound 0.3 µM): 44.5%
- viability, T/C (second compound 3.16 µM, first compound 0.949 µM): 45.2%
- viability, T/C (second compound 3.16 µM, first compound 3 µM): 54.2%
- viability, T/C (second compound 10 µM, first compound 0.00949 µM): 95%
- viability, T/C (second compound 10 µM, first compound 0.03 µM): 43.1%
- viability, T/C (second compound 10 µM, first compound 0.0949 µM): 37.8%
- viability, T/C (second compound 10 µM, first compound 0.3 µM): 40.7%
- viability, T/C (second compound 10 µM, first compound 0.949 µM): 46.4%
- viability, T/C (second compound 10 µM, first compound 3 µM): 58.1%

Compound: Nc1ccn(C2OC(CO)C(O)C2(F)F)c(=O)n1 (stereo unspecified) + Cc1cccc(N(C)C(=O)C2C(O)CCN2c2nc(C)cc(C(F)(F)F)c2C#N)c1
- IC50 (second compound 0.0316 µM): 98.1 nM
- IC50 (second compound 0.1 µM): 95.7 nM
- IC50 (second compound 0.316 µM): 94.7 nM
- IC50 (second compound 1 µM): 100 nM
- IC50 (second compound 3.16 µM): 115 nM
- IC50 (second compound 10 µM): 111 nM
- viability, T/C [1]: 84%
- viability, T/C [2]: 45.3%
- viability, T/C [3]: 35.2%
- viability, T/C [4]: 23.9%
- viability, T/C [5]: 17.8%
- viability, T/C [6]: 13.6%
- viability, T/C [7]: 101%
- viability, T/C [8]: 46.8%
- viability, T/C [9]: 30.3%
- viability, T/C [10]: 23.1%
- viability, T/C [11]: 23.2%
- viability, T/C [12]: 16%
- viability, T/C [13]: 81.7%
- viability, T/C [14]: 47%
- viability, T/C [15]: 31.9%
- viability, T/C [16]: 25.9%
- viability, T/C [17]: 18.2%
- viability, T/C [18]: 16.6%
- viability, T/C [19]: 84.5%
- viability, T/C [20]: 45.5%
- viability, T/C [21]: 32.7%
- viability, T/C [22]: 30.4%
- viability, T/C [23]: 21.7%
- viability, T/C [24]: 10.5%
- viability, T/C [25]: 92.5%
- viability, T/C [26]: 50.9%
- viability, T/C [27]: 31.8%
- viability, T/C [28]: 30.2%
- viability, T/C [29]: 24.6%
- viability, T/C [30]: 13.9%
- viability, T/C [31]: 74.9%
- viability, T/C [32]: 48.6%
- viability, T/C [33]: 38.2%
- viability, T/C [34]: 25%
- viability, T/C [35]: 20.8%
- viability, T/C [36]: 12.3%

— PubChem BioAssay AID1963852 (Molecular Pharmacology Branch, DTP, NCI, 2024)
